The results in this text go back to PubChem BioAssay (NCI).

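Each compound was tested at five concentrations against cells in 96-well plates for 48 hours. TGI marks complete inhibition of growth.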

Holding throughout (assay): growth of human tumour cells (NCI), 48 h
Experiment [1] relates to TK-10 renal.
Experiment [2] relates to COLO 205 colon.
The subject of experiment [3] is SK-MEL-28 melanoma.
The subject of experiment [4] is HCT-15 colon.
Experiment [5] deals with CAKI-1 renal.
Experiment [6] deals with MOLT-4 leukemia.
In experiment [7] the test system is UACC-257 melanoma.
Experiment [8] relates to MCF7 breast.
The subject of experiment [9] is SF-295 CNS.
Experiment [10] has as its system SNB-75 CNS.
In experiment [11] the test system is M14 melanoma.
In experiment [12] the test system is NCI-H226 lung.
Experiment [13] relates to 786-0 renal.

For the molecule `CCCCc1cc2c(C)cc(=O)oc2c(O)c1O`, the TGI in experiment [1] was > 100 µM; in [2], 56.5 µM; in experiment [3] it was > 100 µM; in experiment [4], > 100 µM; in experiment [5] it was 53.3 µM; in experiment [6] it was > 100 µM. In addition, the TGI was 66.1 µM in experiment [7]; 45.7 µM in experiment [8]; 67.3 µM in experiment [9]; > 100 µM in experiment [10]; 85 µM in experiment [11]; 67.9 µM in experiment [12]. For the same molecule, the TGI in experiment [13] is 99.4 µM.

Consider `C=C(CCC(C)C1CCC2C3=C(C(=O)CC21C)C1(C)CCC(=O)[C@@H](C)C1CC3=O)C(C)C(=O)O` (stereo partly drawn), for which the TGI is > 100 µM in experiment [1]; > 100 µM in experiment [2]; > 100 µM in experiment [3]; > 100 µM in [4]; 72.3 µM in experiment [5]; 74.9 µM in experiment [6]. The TGI in experiment [7], in [8], in [9], in experiment [10], in experiment [11] and in [12] was > 100 µM throughout. This molecule also registered a TGI in experiment [13] of 37.8 µM.

As for `COc1ccc(/C=c2\[nH]c3nc(=O)c(N4CCOCC4)c(N)n3c2=O)cc1`, the TGI in experiment [1], in experiment [2], in experiment [3], in experiment [4], in experiment [5] and in experiment [6] was > 100 µM throughout. Moreover, the TGI was > 100 µM in experiment [7]; > 100 µM in experiment [8]; > 100 µM in [9]; 64.5 µM in [10]; > 100 µM in experiment [11]; > 100 µM in experiment [12]. Besides, the TGI in [13] is > 100 µM.

For the molecule `CCOC(=O)c1c(CN2CCNCC2)nc2ccccc2c1-c1ccccc1`, the TGI was 27.3 µM in [1]; 35.8 µM in experiment [2]; 25.1 µM in experiment [3]; 32.8 µM in experiment [4]; 25.7 µM in [5]; 25 µM in experiment [6]. For the same molecule, the TGI was determined as 15.7 µM in experiment [7]; 28.1 µM in [8]; 29 µM in [9]; 20.5 µM in experiment [10]; 28.2 µM in [11]; 37.9 µM in experiment [12]. The molecule also returned a TGI in [13] of 25.3 µM.

For the molecule `CCOC(=O)C1(C(=O)OCC)[C@H](c2ccccc2)C2=NO[C@@H]3CCC[C@H]1[C@H]23`, the TGI in experiment [1], in experiment [2], in experiment [3], in experiment [4], in [5] and in experiment [6] was > 100 µM each time. The TGI in experiment [7], in experiment [8], in [9], in experiment [10], in [11] and in [12] was > 100 µM in each case. Besides, in experiment [13], the TGI was > 100 µM.

For the molecule `CCNc1ccc2c(c1)Cc1ccccc1-2`, the TGI in experiment [1], in experiment [2], in experiment [3], in experiment [4], in experiment [5] and in experiment [6] was > 100 µM in each case. For the same molecule, the TGI in [7], in [8], in experiment [9], in experiment [10], in [11] and in experiment [12] was > 100 µM in each case. In [13], the TGI was > 100 µM.

`Nc1ncnc2c1ncn2C1CCC(COS(N)(=O)=O)C1` (stereo not drawn): the TGI in [1], in [2], in experiment [3], in experiment [4], in experiment [5] and in [6] was > 100 µM throughout. Also, the TGI in experiment [7], in experiment [8], in experiment [9], in [10], in [11] and in [12] was > 100 µM in each case. The TGI in experiment [13] is > 100 µM.

As for `COc1cc2c(cc1OCCCC(=O)Nc1cc(C(=O)Nc3cc(C(=O)Nc4cc(C(=O)NCCCN(C)C)n(C)n4)n(C)n3)n(C)n1)N=CC1CCCN1C2=O` (stereo not drawn), the TGI in experiment [1] is 40.7 µM; in [2] it was > 100 µM; in experiment [3], 30.7 µM; in experiment [4], > 100 µM; in [5], 61.5 µM; in experiment [6], > 100 µM. Further, the TGI in experiment [7] is 40.9 µM; in [8], > 100 µM; in experiment [9], 86.6 µM; in [10], 52.6 µM; in experiment [11], 95.2 µM; in experiment [12], 48.1 µM. Moreover, the TGI in experiment [13] was > 100 µM.

With `Cc1ccc(C(=O)N/N=C(\N=Nc2cccc(Cl)c2)c2ccc(N(CCC#N)CCC#N)cc2C)cc1`, the TGI in [1], in [2], in [3], in [4], in [5] and in experiment [6] was > 100 µM throughout. Moreover, the TGI in [7], in experiment [8], in experiment [9], in [10], in experiment [11] and in experiment [12] was > 100 µM in each case. Moreover, the TGI in experiment [13] was > 100 µM.

Turning to `CN(C)CCNC(=O)c1ccc(NCCCN(C)CCCNc2ccc3c(=O)n(CCN(C)C)c(=O)n4c5ccccc5c(=O)c2c34)c2c(=O)c3ccccc3[nH]c12`, the TGI in experiment [1] was 0.687 µM; in experiment [2], 0.353 µM; in [3], 1.34 µM; in [4] it was 1.31 µM; in experiment [5], 1.06 µM; in experiment [6], 1.1 µM. Moreover, the TGI in [7] stood at 0.718 µM; in [8] it was 0.344 µM; in [9], 1.06 µM; in [10], 0.0449 µM; in [11] it was 0.67 µM; in [12], 0.665 µM. Besides, the TGI in experiment [13] was 0.11 µM.

Turning to `CCOC(=O)C(NC(=O)N(C1=NCC(C)S1)C1CCCCC1)(OC)C(F)(F)F` (stereo not drawn), the TGI in experiment [1] was > 100 µM; in experiment [2], 50.8 µM; in experiment [3] it was > 100 µM; in experiment [4], > 100 µM; in [5], > 100 µM; in experiment [6] it was > 100 µM. The TGI in experiment [7] was > 100 µM; in [8], 62.2 µM; in experiment [9] it was > 100 µM; in experiment [10], 75.1 µM; in [11] it was > 100 µM; in [12], 47.5 µM. In addition, the TGI in [13] was 28.9 µM.
